Experimental data from US12479843B2, “Spiro ring-containing quinazoline compounds” (WIGEN BIOMEDICINE TECHNOLOGY (SHANGHAI) CO., LTD., priority 2019, dated 2025).

Assays:
pERK level in H358 cells = assay: pERK and ERK protein content assay in H358 cells (ELISA); assay type: cell-based; conditions: Homo sapiens, NCI-H358, compound 1 μM, 24 h, pERK/ERK ratio compared with DMSO group, read-out: Inhibition rate (%) of pERK level
Summary of the method: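 H358 cells grown one day, then treated 24 h with compound at 1 μM. pERK and ERK in lysates measured by ELISA; pERK/ERK ratio expressed as percent inhibition versus DMSO.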

H358 cells = assay: Antiproliferative activity against H358 cells (Cell Titer Glow, ultra-low attachment plate); assay type: cell-based; conditions: Homo sapiens, NCI-H358, 72 h, 96-well ultra-low attachment plate, three days after addition of compound, Cell Titer Glow
Protocol: 2500 H358 cells were seeded in a 96-well ultra-low attachment plate (corning, 7007). After one day of growth, a serially diluted compound (a maximum concentration of 5 μM, 5-fold dilution, a total of five doses) was added. Three days after the addition of the compound, Cell Titer Glow (Promega, G9681) was added to evaluate pellet growth, and the IC50 value was calculated.

| IC50 (H358 cells) [nM] | SMILES | inhibition at 1 µM (pERK level in H358 cells) [%] |
| --- | --- | --- |
| < 300 | C=CC(=O)N1CC2(CCN(c3nc(OC4CCC5(CC4)CN(CCOC)C5)nc4c(OCC(F)(F)F)c(-c5c(C)ccc6[nH]ncc56)c(C5CC5)cc34)CC2)C1 [Compound 137] | > 90 |
| < 300 | C=C(F)C(=O)N1CC2(CCN(c3nc(OC4CCC5(CC4)CN(CCOC)C5)nc4c(OCC(F)(F)F)c(-c5c(C)ccc6[nH]ncc56)c(C5CC5)cc34)CC2)C1 [Compound 138] | > 90 |
| < 300 | C=C(F)C(=O)N1CC2(CCN(c3nc(N4CC(N(C)C)C4)nc4c(OCC(F)(F)F)c(-c5c(C)ccc6[nH]ncc56)c(C5CC5)cc34)CC2)C1 [Compound 139] | > 90 |
| < 300 | C=CC(=O)N1CC2(CCN(c3nc(N4CC(N(C)CCOC)C4)nc4c(OCC(F)(F)F)c(-c5c(C)ccc6[nH]ncc56)c(C5CC5)cc34)CC2)C1 [Compound 140] | > 90 |
| < 300 | C=C(F)C(=O)N1CC2(CCN(c3nc(N4CC(N(C)CCOC)C4)nc4c(OCC(F)(F)F)c(-c5c(C)ccc6[nH]ncc56)c(C5CC5)cc34)CC2)C1 [Compound 141] | > 90 |
| < 300 | C=C(F)C(=O)N1CC2(CCN(c3nc(N4CC(N5CCC5)C4)nc4c(OCC(F)(F)F)c(-c5c(C)ccc6[nH]ncc56)c(C5CC5)cc34)CC2)C1 [Compound 143] | > 90 |
| < 300 | C=CC(=O)N1CC2(CCN(c3nc(N4CC(N5CC(OC)C5)C4)nc4c(OCC(F)(F)F)c(-c5c(C)ccc6[nH]ncc56)c(C5CC5)cc34)CC2)C1 [Compound 144] | > 90 |
| < 300 | C=C(F)C(=O)N1CC2(CCN(c3nc(N4CC(N5CC(OC)C5)C4)nc4c(OCC(F)(F)F)c(-c5c(C)ccc6[nH]ncc56)c(C5CC5)cc34)CC2)C1 [Compound 145] | > 90 |
| < 300 | C=CC(=O)N1CC2(CCN(c3nc(N4CC(N5CCOCC5)C4)nc4c(OCC(F)(F)F)c(-c5c(C)ccc6[nH]ncc56)c(C5CC5)cc34)CC2)C1 [Compound 146] | > 90 |
| < 300 | C=C(F)C(=O)N1CC2(CCN(c3nc(N4CC(N5CCOCC5)C4)nc4c(OCC(F)(F)F)c(-c5c(C)ccc6[nH]ncc56)c(C5CC5)cc34)CC2)C1 [Compound 147] | > 90 |
| 300 to 1000 | C=CC(=O)N1CC2(CCN(c3nc(N4CCC(N5CCOCC5)CC4)nc4c(OCC(F)(F)F)c(-c5c(C)ccc6[nH]ncc56)c(C5CC5)cc34)CC2)C1 [Compound 148] | 50 to 90 |
| 300 to 1000 | C=C(F)C(=O)N1CC2(CCN(c3nc(N4CCC(N5CCOCC5)CC4)nc4c(OCC(F)(F)F)c(-c5c(C)ccc6[nH]ncc56)c(C5CC5)cc34)CC2)C1 [Compound 149] | 50 to 90 |
| < 300 | C=CC(=O)N1CC2(CCN(c3nc(N4CCN(C5COC5)CC4)nc4c(OCC(F)(F)F)c(-c5c(C)ccc6[nH]ncc56)c(C5CC5)cc34)CC2)C1 [Compound 152] | > 90 |
| < 300 | C=C(F)C(=O)N1CC2(CCN(c3nc(N4CCN(C5COC5)CC4)nc4c(OCC(F)(F)F)c(-c5c(C)ccc6[nH]ncc56)c(C5CC5)cc34)CC2)C1 [Compound 153] | > 90 |
| < 300 | C=CC(=O)N1CC2(CCN(c3nc(N4CCN(C5CCOCC5)CC4)nc4c(OCC(F)(F)F)c(-c5c(C)ccc6[nH]ncc56)c(C5CC5)cc34)CC2)C1 [Compound 154] | > 90 |
| 300 to 1000 | C=C(F)C(=O)N1CC2(CCN(c3nc(N4CCN(C5CCOCC5)CC4)nc4c(OCC(F)(F)F)c(-c5c(C)ccc6[nH]ncc56)c(C5CC5)cc34)CC2)C1 [Compound 155] | 50 to 90 |
| < 300 | C=CC(=O)N1CC2(CCN(c3nc(N4CC5(CCOCC5)C4)nc4c(OCC(F)(F)F)c(-c5c(C)ccc6[nH]ncc56)c(C5CC5)cc34)CC2)C1 [Compound 156] | > 90 |
| < 300 | C=CC(=O)N1CC2(CCN(c3nc(N4CC5(CN(CC6CC6)C5)C4)nc4c(OCC(F)(F)F)c(-c5c(C)ccc6[nH]ncc56)c(C5CC5)cc34)CC2)C1 [Compound 157] | > 90 |
| < 300 | C=CC(=O)N1CC2(CCN(c3nc(N4CC5(C4)CN(C4COC4)C5)nc4c(OCC(F)(F)F)c(-c5c(C)ccc6[nH]ncc56)c(C5CC5)cc34)CC2)C1 [Compound 158] | > 90 |
| < 300 | C=CC(=O)N1CC2(CCN(c3nc(N4CCC5(CCN(C)C5)C4)nc4c(OCC(F)(F)F)c(-c5c(C)ccc6[nH]ncc56)c(C5CC5)cc34)CC2)C1 (stereo not drawn) [Compound 159] | > 90 |

| IC50 (H358 cells) [nM] | SMILES | inhibition at 1 µM (pERK level in H358 cells) [%] |
| --- | --- | --- |
| < 300 | C=CC(=O)N1CC2(CCN(c3nc(N4CCC5(CCN(CCOC)C5)C4)nc4c(OCC(F)(F)F)c(-c5c(C)ccc6[nH]ncc56)c(C5CC5)cc34)CC2)C1 (stereo not drawn) [Compound 160] | > 90 |
| < 300 | C=CC(=O)N1CC2(CCN(c3nc(N4CCC5(CCN(C)CC5)C4)nc4c(OCC(F)(F)F)c(-c5c(C)ccc6[nH]ncc56)c(C5CC5)cc34)CC2)C1 [Compound 161] | > 90 |
| < 300 | C=CC(=O)N1CC2(CCN(c3nc(N4CCC5(CC4)CC(N)C5)nc4c(OCC(F)(F)F)c(-c5c(C)ccc6[nH]ncc56)c(C5CC5)cc34)CC2)C1 [Compound 162] | > 90 |
| < 300 | C=CC(=O)N1CC2(CCN(c3nc(N4CCC5(CCN(C)C5)CC4)nc4c(OCC(F)(F)F)c(-c5c(C)ccc6[nH]ncc56)c(C5CC5)cc34)CC2)C1 [Compound 163] | > 90 |
| < 300 | C=CC(=O)N1CC2(CCN(c3nc(N4CCC5(CCN(C)CC5)CC4)nc4c(OCC(F)(F)F)c(-c5c(C)ccc6[nH]ncc56)c(C5CC5)cc34)CC2)C1 [Compound 164] | > 90 |
| < 300 | C=CC(=O)N1CC2(CCN(c3nc(N4CC(N(C)CC)C4)nc4c(OCC(F)(F)F)c(-c5c(C)ccc6[nH]ncc56)c(C5CC5)cc34)CC2)C1 [Compound 165] | > 90 |
| < 300 | C=CC(=O)N1CC2(CCN(c3nc(N4CC(N(CC)CC)C4)nc4c(OCC(F)(F)F)c(-c5c(C)ccc6[nH]ncc56)c(C5CC5)cc34)CC2)C1 [Compound 166] | > 90 |
| 300 to 1000 | C=CC(=O)N1CC2(CCN(c3nc(N4CC(N(C)CC(F)(F)F)C4)nc4c(OCC(F)(F)F)c(-c5c(C)ccc6[nH]ncc56)c(C5CC5)cc34)CC2)C1 [Compound 167] | > 90 |
| < 300 | C=CC(=O)N1CC2(CCN(c3nc(N4CC(N5CC(F)C5)C4)nc4c(OCC(F)(F)F)c(-c5c(C)ccc6[nH]ncc56)c(C5CC5)cc34)CC2)C1 [Compound 168] | > 90 |
| 300 to 1000 | C=CC(=O)N1CC2(CCN(c3nc(N4CC(N5CC(F)(F)C5)C4)nc4c(OCC(F)(F)F)c(-c5c(C)ccc6[nH]ncc56)c(C5CC5)cc34)CC2)C1 [Compound 169] | 50 to 90 |
| 300 to 1000 | C=CC(=O)N1CC2(CCN(c3nc(N4CC(N5CC(OCC)C5)C4)nc4c(OCC(F)(F)F)c(-c5c(C)ccc6[nH]ncc56)c(C5CC5)cc34)CC2)C1 [Compound 170] | 50 to 90 |
| < 300 | C=CC(=O)N1CC2(CCN(c3nc(N4CC(N5CC[C@H](F)C5)C4)nc4c(OCC(F)(F)F)c(-c5c(C)ccc6[nH]ncc56)c(C5CC5)cc34)CC2)C1 [Compound 172] | > 90 |
| < 300 | C=CC(=O)N1CC2(CCN(c3nc(N4CC(N5CC[C@H](OC)C5)C4)nc4c(OCC(F)(F)F)c(-c5c(C)ccc6[nH]ncc56)c(C5CC5)cc34)CC2)C1 [Compound 174] | > 90 |
| < 300 | C=CC(=O)N1CC2(CCN(c3nc(N4CC(N5CC[C@@H](OC)C5)C4)nc4c(OCC(F)(F)F)c(-c5c(C)ccc6[nH]ncc56)c(C5CC5)cc34)CC2)C1 [Compound 175] | > 90 |
| 300 to 1000 | C=CC(=O)N1CC2(CCN(c3nc(N4CC(N5CCC(F)(F)C5)C4)nc4c(OCC(F)(F)F)c(-c5c(C)ccc6[nH]ncc56)c(C5CC5)cc34)CC2)C1 [Compound 176] | 50 to 90 |
| < 300 | C=CC(=O)N1CC2(CCN(c3nc(N4CC(N5CCCCC5)C4)nc4c(OCC(F)(F)F)c(-c5c(C)ccc6[nH]ncc56)c(C5CC5)cc34)CC2)C1 [Compound 177] | > 90 |
| < 300 | C=CC(=O)N1CC2(CCN(c3nc(N4CC(N5CCC(F)CC5)C4)nc4c(OCC(F)(F)F)c(-c5c(C)ccc6[nH]ncc56)c(C5CC5)cc34)CC2)C1 [Compound 178] | > 90 |
| < 300 | C=CC(=O)N1CC2(CCN(c3nc(N4CC(N5CCC(OC)CC5)C4)nc4c(OCC(F)(F)F)c(-c5c(C)ccc6[nH]ncc56)c(C5CC5)cc34)CC2)C1 [Compound 179] | > 90 |
| 300 to 1000 | C=CC(=O)N1CC2(CCN(c3nc(N4CC(N5CCC(F)(F)CC5)C4)nc4c(OCC(F)(F)F)c(-c5c(C)ccc6[nH]ncc56)c(C5CC5)cc34)CC2)C1 [Compound 180] | > 90 |
| < 300 | C=CC(=O)N1CC2(CCN(c3nc(N4CC[C@H](N5CCC5)C4)nc4c(OCC(F)(F)F)c(-c5c(C)ccc6[nH]ncc56)c(C5CC5)cc34)CC2)C1 [Compound 181] | > 90 |

| SMILES | IC50 (H358 cells) [nM] | inhibition at 1 µM (pERK level in H358 cells) [%] |
| --- | --- | --- |
| C=CC(=O)N1CC2(CCN(c3nc(OC4CN5CCC4CC5)nc4c(OCC(F)(F)F)c(-c5c(C)ccc6[nH]ncc56)c(C5CC5)cc34)CC2)C1 (stereo not drawn) [Compound 150] | < 300 | > 90 |
| C=C(F)C(=O)N1CC2(CCN(c3nc(OC4CN5CCC4CC5)nc4c(OCC(F)(F)F)c(-c5c(C)ccc6[nH]ncc56)c(C5CC5)cc34)CC2)C1 (stereo not drawn) [Compound 151] | 300 to 1000 | > 90 |
